{"source": "patent US20230330104A1", "about": "“PRESERVATIVE-FREE OPHTHALMIC PHARMACEUTICAL EMULSION AND ITS APPLICATION” (Caravel Therapeutics, Inc., priority 2022, published 2023)", "key": {"[1]": {"system": "patients diagnosed with open angle glaucoma", "assay": "IOP measurement after emulsion instillation", "type": "in vivo, human", "details": "baseline 17.68 ± 4.11, mean ± SD", "source_text": "(§1) The patients diagnosed with open angle glaucoma in total are 35 eyes of 20 patients, wherein 10 eyes are diagnosed as POAG, and 25 eyes are NTG, besides 2 eyes had received prior corneal refractive surgery, and 1 eye had undergone cataract extraction and intraocular lens implantation. In the aspect of the medication using, 20 eyes are treatment naïve upon entry of the study (that is they are not using IOP lowering medication), and 15 eyes are previously treated with IOP lowering medication. The IOP lowering medication in the treated patients were requested for the following medication washout period: 4 weeks for beta-blockers and prostaglandin analogues, 2-4 weeks for alpha-agonists, and 1 week for carbonic anhydrase inhibitors in order to eliminate the experimental errors.\nAll patients are received the best corrected visual acuity test (BCVA), IOP measurement, optical coherence tomography (OCT), laser speckle flowgraph (LSFG) evaluation, fundus photo, visual field examination, blood pressure (BP), and heart rate measurement, and then these obtained data are averaged as the baseline data of the experiment, but the intraocular eye disease other than OAG, significant cataract influencing refractive errors or visual field result, systemic disease with resultant visual field defect, and unreliable LSFG results are excluded. […]"}, "[2]": {"system": "patients diagnosed with open angle glaucoma", "assay": "Blood pressure, ocular perfusion pressure and heart rate measurement", "type": "in vivo, human", "details": "for MOPP (mean ocular perfusion pressure): baseline 48.82 ± 7.10; for MOPP (mean ocular perfusion pressure) / MHR (mean heart rate) / MBP (mean blood pressure): mean ± SD; for MHR (mean heart rate): baseline 74.03 ± 8.95; for MBP (mean blood pressure): baseline 99.69 ± 9.90", "source_text": "as §1\n(§2) All patients are received the best corrected visual acuity test (BCVA), IOP measurement, optical coherence tomography (OCT), laser speckle flowgraph (LSFG) evaluation, fundus photo, visual field examination, blood pressure (BP), and heart rate measurement, and then these obtained data are averaged as the baseline data of the experiment, but the intraocular eye disease other than OAG, significant cataract influencing refractive errors or visual field result, systemic disease with resultant visual field defect, and unreliable LSFG results are excluded."}, "[3]": {"assay": "Stability study (ICH Q1A(R2)) of the emulsion", "type": "physicochemical", "details": "accelerated condition", "method": "In this section, stability study is conducted using the abovementioned Example 1 as an example. The stability study is performed according to common practices known such as ICH HARMONISED TRIPARTITE GUIDELINE-Topic Q1A(R2) <Stability Testing of new Drug Substances and Products> and inspection items are screened based on USP chapter 771 and 1771. The stability study is carried out under two conditions: temperature of 5° C.±3° C. with no humidity; and temperature of 25° C.±2° C. with the relative humidity of 60%±5%. LBN content is determined with an HPLC equipped with an UV detector and using a mixture of two mobile phases. The HPLC condition reports as the following: [table]"}, "[4]": {"system": "optic nerve head area", "assay": "Laser speckle flowgraph (LSFG) evaluation, mean blur rate and pulse waveform", "type": "in vivo, human", "details": "for MS (mean skew): baseline 11.92 ± 3.94; for MS (mean skew) / MBRt (mean blur rate of tissue area) / MF (mean fluctuation) / MATI (mean acceleration time index) / MBRv (mean blur rate of vessel area) / MBOT (mean blowout time) / MBOS (mean blowout score): mean ± SD; for MBRt (mean blur rate of tissue area): baseline 12.65 ± 3.57; for MF (mean fluctuation): baseline 13.76 ± 3.79; for MATI (mean acceleration time index): baseline 32.62 ± 5.80; for MBRv (mean blur rate of vessel area): baseline 40.24 ± 10.65; for MBOT (mean blowout time): baseline 50.53 ± 8.53; for MBOS (mean blowout score): baseline 75.27 ± 6.51; for MBRt (%), percentage of baseline / MBRv (%), percentage of baseline: baseline 100.0 ± 0", "source_text": "as §1, §2\nIn the LSFG evaluation, one drop of said emulsion is instilled in the examined eyes at clinic. Afterward, LSFG measurements are repeated at 30 minutes and 2 hours post-LBN instillation. The patients would continuously instill the emulsion once every night for one month, and return to clinic again for another LSFG exam. Laser speckle flowgraph (LSFG-NAVI version 3.1.39.2 software, Softcare Ltd., Fukuoka, Japan) are used to measure the mean blur rate (MBR) of the optic nerve head area for pulse waveform analysis in all patients. Averaged MBR and pulse waveform parameters are documented at each LSFG measurement in order to evaluate the effect of latanoprostene bunod using on microcirculation of optic nerve head."}, "[5]": {"details": "all time points, Wilcoxon signed rank test"}}, "note": "“And” between values parts separate entries of the source, which are not always exact repeats. Equal values may be shown once. “Also recorded” adds a separate entry of the source.", "data": [{"smiles": "O=C(CCC/C=C\\C[C@@H]1[C@@H](CC[C@@H](O)CCc2ccccc2)[C@H](O)C[C@@H]1O)OCCCCO[N+](=O)[O-]", "note": "[LBN, Latanoprostene bunod]", "values": [{"measurement": "MIOP (mean intraocular pressure)", "setting": "[1]; 30 minutes after instillation", "result": "18.29 ± 4.00", "unit": "mmHg"}, {"measurement": "MIOP (mean intraocular pressure)", "setting": "[1]; 2 hours after instillation", "result": "17.24 ± 4.14", "unit": "mmHg"}, {"measurement": "MOPP (mean ocular perfusion pressure)", "setting": "[2]; 1 month", "result": "50.80 ± 12.06", "unit": "mmHg"}, {"measurement": "MHR (mean heart rate)", "setting": "[2]; 1 month", "result": "72.03 ± 10.68", "unit": "min⁻¹"}, {"measurement": "MBP (mean blood pressure)", "setting": "[2]; 1 month", "result": "98.08 ± 12.06", "unit": "mmHg"}, {"measurement": "MOPP (mean ocular perfusion pressure)", "setting": "[2]; 30 minutes", "result": "47.87 ± 8.07", "unit": "mmHg"}, {"measurement": "MBP (mean blood pressure)", "setting": "[2]; 30 minutes", "result": "99.62 ± 11.54", "unit": "mmHg"}, {"measurement": "MOPP (mean ocular perfusion pressure)", "setting": "[2]; 2 hours", "result": "48.65 ± 9.48", "unit": "mmHg"}, {"measurement": "MHR (mean heart rate)", "setting": "[2]; 2 hours", "result": "77.77 ± 11.11", "unit": "min⁻¹"}, {"measurement": "MBP (mean blood pressure)", "setting": "[2]; 2 hours", "result": "98.88 ± 14.12", "unit": "mmHg"}, {"measurement": "mean blood pressure (MBP), difference from baseline", "setting": "[2]; [5]", "result": "not significantly different"}, {"measurement": "mean ocular perfusion pressure (MOPP), difference from baseline", "setting": "[2]; [5]", "result": "not significantly different; also recorded: has not differed"}, {"measurement": "assay of LBN upon storage", "setting": "[3]", "result": "remained unchanged"}, {"measurement": "MS (mean skew)", "setting": "[4]; 1 month", "result": "10.99 ± 2.30", "unit": "AU"}, {"measurement": "MBRt (mean blur rate of tissue area)", "setting": "[4]; 1 month", "result": "12.67 ± 3.80", "unit": "AU"}, {"measurement": "MF (mean fluctuation)", "setting": "[4]; 1 month", "result": "13.44 ± 3.31", "unit": "AU"}, {"measurement": "MATI (mean acceleration time index)", "setting": "[4]; 1 month", "result": "31.71 ± 4.11", "unit": "%"}, {"measurement": "MBRv (mean blur rate of vessel area)", "setting": "[4]; 1 month", "result": "45.49 ± 12.22", "unit": "AU"}, {"measurement": "MBOT (mean blowout time)", "setting": "[4]; 1 month", "result": "52.67 ± 6.62", "unit": "AU"}, {"measurement": "MBOS (mean blowout score)", "setting": "[4]; 1 month", "result": "77.26 ± 6.26", "unit": "AU"}, {"measurement": "MBRt (%), percentage of baseline", "setting": "[4]; 1 month", "result": "101.84 ± 15.33", "unit": "%"}, {"measurement": "MBRv (%), percentage of baseline", "setting": "[4]; 1 month", "result": "113.91 ± 26.53", "unit": "%"}, {"measurement": "MS (mean skew)", "setting": "[4]; 30 minutes", "result": "11.84 ± 2.08", "unit": "AU"}, {"measurement": "MBRt (mean blur rate of tissue area)", "setting": "[4]; 30 minutes", "result": "12.48 ± 3.04", "unit": "AU"}, {"measurement": "MF (mean fluctuation)", "setting": "[4]; 30 minutes", "result": "13.94 ± 4.30", "unit": "AU"}, {"measurement": "MATI (mean acceleration time index)", "setting": "[4]; 30 minutes", "result": "31.51 ± 4.04", "unit": "%"}, {"measurement": "MBRv (mean blur rate of vessel area)", "setting": "[4]; 30 minutes", "result": "41.95 ± 10.03", "unit": "AU"}, {"measurement": "MBOT (mean blowout time)", "setting": "[4]; 30 minutes", "result": "49.76 ± 6.17", "unit": "AU"}, {"measurement": "MBOS (mean blowout score)", "setting": "[4]; 30 minutes", "result": "74.44 ± 7.60", "unit": "AU"}, {"measurement": "MBRt (%), percentage of baseline", "setting": "[4]; 30 minutes", "result": "100.63 ± 14.37", "unit": "%"}, {"measurement": "MBRv (%), percentage of baseline", "setting": "[4]; 30 minutes", "result": "105.97 ± 16.49", "unit": "%"}, {"measurement": "MS (mean skew)", "setting": "[4]; 2 hours", "result": "11.82 ± 2.58", "unit": "AU"}, {"measurement": "MBRt (mean blur rate of tissue area)", "setting": "[4]; 2 hours", "result": "12.73 ± 3.46", "unit": "AU"}, {"measurement": "MF (mean fluctuation)", "setting": "[4]; 2 hours", "result": "13.46 ± 3.95", "unit": "AU"}, {"measurement": "MBRv (mean blur rate of vessel area)", "setting": "[4]; 2 hours", "result": "45.14 ± 10.59", "unit": "AU"}, {"measurement": "MBOT (mean blowout time)", "setting": "[4]; 2 hours", "result": "52.09 ± 5.56", "unit": "AU"}, {"measurement": "MBOS (mean blowout score)", "setting": "[4]; 2 hours", "result": "76.24 ± 6.67", "unit": "AU"}, {"measurement": "MBRt (%), percentage of baseline", "setting": "[4]; 2 hours", "result": "101.84 ± 13.71", "unit": "%"}, {"measurement": "MBRv (%), percentage of baseline", "setting": "[4]; 2 hours", "result": "114.36 ± 20.02% and 114.36 ± 20.2 %"}, {"measurement": "mean blur rate of tissue area (MBRt), difference from baseline", "setting": "[4]; [5]", "result": "not significantly different"}]}]}
